Test results as given in patent publication US8389557B2, “Triazole derivatives useful as Axl inhibitors” (Rigel Pharmaceuticals, Inc., priority 2005, dated 2013).

Molecular target: T1, Axl (Homo sapiens, UniProt P30530)
T1 construct: endogenous in cells; host or cells: HeLa cells
T1 sequence (P30530 26-894): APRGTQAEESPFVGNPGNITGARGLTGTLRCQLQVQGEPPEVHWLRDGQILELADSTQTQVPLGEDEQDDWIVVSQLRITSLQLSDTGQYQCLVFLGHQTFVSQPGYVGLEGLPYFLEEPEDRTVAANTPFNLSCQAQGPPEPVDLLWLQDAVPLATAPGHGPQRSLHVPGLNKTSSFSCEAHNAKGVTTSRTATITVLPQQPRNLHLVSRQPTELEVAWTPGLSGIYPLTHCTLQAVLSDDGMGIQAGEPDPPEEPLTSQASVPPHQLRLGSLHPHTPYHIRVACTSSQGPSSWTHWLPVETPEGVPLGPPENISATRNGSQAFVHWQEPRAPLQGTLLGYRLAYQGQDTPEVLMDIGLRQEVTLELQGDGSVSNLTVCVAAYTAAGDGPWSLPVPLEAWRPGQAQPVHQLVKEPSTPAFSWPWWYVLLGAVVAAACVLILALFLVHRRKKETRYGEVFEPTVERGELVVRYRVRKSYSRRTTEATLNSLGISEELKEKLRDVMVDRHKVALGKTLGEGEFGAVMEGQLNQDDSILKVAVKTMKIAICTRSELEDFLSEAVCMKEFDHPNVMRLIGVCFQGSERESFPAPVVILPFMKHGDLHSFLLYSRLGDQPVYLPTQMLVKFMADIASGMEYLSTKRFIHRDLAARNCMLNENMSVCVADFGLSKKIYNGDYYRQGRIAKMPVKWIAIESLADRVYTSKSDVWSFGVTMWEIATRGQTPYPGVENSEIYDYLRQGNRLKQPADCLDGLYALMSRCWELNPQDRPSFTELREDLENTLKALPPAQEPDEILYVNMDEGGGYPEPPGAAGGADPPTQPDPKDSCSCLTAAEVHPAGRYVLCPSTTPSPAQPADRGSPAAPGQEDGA
Assay: Phospho-Akt in-cell Western assay (inhibition of Axl activity)
Type: cell-based
Outline: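 HeLa cells on poly-L-lysine, starved 24 h in 0.5% FCS DMEM with Axl/Fc 500 ng/mL, pre-treated with compound 1 h at 37° C. Axl stimulated 5 min by anti-Axl/anti-mouse antibody cross-linking. Fixed cells probed with anti-phospho-Akt and HRP secondary, chemiluminescence read.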

[1] = inhibition of Axl activity, phospho-Akt in-cell Western assay, Table 1
[2] = Table 3, Hela cells, Axl antibody cross-linking stimulation, phospho-Akt chemiluminescence
[3] = Table 6, Hela cells, Axl antibody cross-linking stimulation, phospho-Akt chemiluminescence
[4] = inhibition of Axl activity, Table 1
[5] = Table 5, Hela cells, Axl antibody cross-linking stimulation, phospho-Akt chemiluminescence
[6] = Table 7, Hela cells, Axl antibody cross-linking stimulation, phospho-Akt chemiluminescence

`COc1cc(Nc2nc(N)n(C(=O)c3ccc(OC(C)C)cc3)n2)ccc1OCCN1CCCC1` [compound 316, 5-amino-1-(4-(iso-propoxy)phenyl)carbonyl-3-[3-methoxy-4-[2-(pyrrolidin-1-yl)ethoxy]phenylamino]-1H-1,2,4-triazole] was tested, and the IC50 [1] was < 1 µM.

In the case of `Nc1nc(Nc2ccc(OCCN3CCCC3)cc2)nn1C(=O)c1cccs1` [compound 285, 5-amino-1-(thien-2-yl)carbonyl-3-[4-[2-(pyrrolidin-1-yl)ethoxy]phenylamino]-1H-1,2,4-triazole], the IC50 [2] is reported as < 1 µM.

In the case of `CN(C)c1ccc(C(=O)n2nc(N)nc2NC2CCN(S(C)(=O)=O)CC2)cc1` [compound 396, 3-amino-1-(4-(dimethylamino)phenyl)carbonyl-5-(1-methylsulfonylpiperidin-4-yl)amino-1H-1,2,4-triazole], the IC50 [3] is reported as > 20 µM.

Molecule `Nc1nc(Nc2ccc3c(c2)OCCO3)nn1C(=O)c1ccc(OCCN2CCOCC2)cc1` [compound 149, 5-amino-3-(1,4-benzodioxan-6-yl)amino-1-[4-[2-(morpholin-4-yl)ethoxy]phenyl]carbonyl-1H-1,2,4-triazole] has an IC50 [4] of 1 to 10 µM.

In the case of `NC(=O)COc1cccc(C(=O)n2nc(Nc3ccc4c(c3)OCCO4)nc2N)c1` [compound 231, 5-amino-1-(3-aminocarbonylmethoxy)phenylcarbonyl-3-(1,4-benzodioxan-6-yl)amino-1H-1,2,4-triazole], the IC50 [4] is reported as > 20 µM.

`Nc1nc(Nc2ccc(OCCN3CCCC3)cc2)nn1C(=O)c1ccc(-c2ccsc2)cc1` [compound 314, 5-amino-1-(4-(thien-3-yl)phenyl)carbonyl-3-[4-[2-(pyrrolidin-1-yl)ethoxy]phenylamino]-1H-1,2,4-triazole] was tested, and the IC50 [1] was < 1 µM.

With `CN1CCN(c2ccc(Nc3nc(N)n(C(=O)c4ccc(OC(C)(C)C)cc4)n3)cc2)CC1` [compound 357, 5-amino-1-(4-(tert-butoxy)phenyl)carbonyl-3-[4-(4-methylpiperazin-1-yl)phenylamino]-1H-1,2,4-triazole] the IC50 [1] was < 1 µM.

With `Cc1ccccc1C(=O)n1nc(Nc2cccc(O)c2)nc1N` [(Ia-6), 5-amino-3-[3-(hydroxy)phenylamino]-1-(2-(methyl)phenyl)carbonyl-1H-1,2,4-triazole] the IC50 [4] was > 20 µM.

`COc1cc(OC)cc(C(=O)n2nc(Nc3ccc(OCCN4CCCC4)cc3)nc2N)c1` [compound #22, 5-Amino-1-(3,5-(dimethoxy)phenyl)carbonyl-3-[4-[2-(pyrrolidin-1-yl)ethoxy]phenylamino]-1H-1,2,4-triazole] was tested, and the IC50 [1] was < 1 µM.

`CC(C)Oc1ccc(C(=O)n2nc(Nc3ccc(OCCN4CCCC4)cc3)nc2N)cc1` [(Ia-2), 5-amino-1-(4-(iso-propoxy)phenyl)carbonyl-3-[4-[2-(pyrrolidin-1-yl)ethoxy]phenylamino]-1H-1,2,4-triazole] was tested, and the IC50 [1] was < 1 µM.

In the case of `CC(C)Oc1ccc(C(=O)n2nc(Nc3ccc4c(c3)C(NC(=O)OC(C)(C)C)CCO4)nc2N)cc1` (stereo not drawn) [compound 274], the IC50 [5] is reported as > 20 µM.

Molecule `CCOc1cccc(Nc2nc(N)n(C(=O)c3ccc(OC(C)C)cc3)n2)c1` [compound 125, 5-amino-3-[3-(ethoxy)phenylamino]-1-(4-(iso-propoxy)phenyl)carbonyl-1H-1,2,4-triazole] has an IC50 [4] of 1 to 10 µM.

With `Nc1nc(Nc2ccc(OCCN3CCCC3)c(F)c2)nn1C(=O)c1ccc(-c2csnn2)cc1` [compound 306, 5-amino-1-(4-(1,2,3-thiadiazol-4-yl)phenyl)carbonyl-3-[3-fluoro-4-[2-(pyrrolidin-1-yl)ethoxy]phenylamino]-1H-1,2,4-triazole] the IC50 [1] was < 1 µM.

For `Cc1cccc(C(=O)n2nc(Nc3ccc4cnn(C)c4c3)nc2N)c1` [compound 254, 5-amino-3-(1H-1-methyl-indazol-6-yl)amino-1-(3-methylphenyl)carbonyl-1H-1,2,4-triazole], the IC50 [5] was > 20 µM.

With `Nc1nc(Nc2ccc3c(c2)OCCO3)nn1C(=O)c1ccc(F)cc1` [compound 100, 5-amino-3-(1,4-benzodioxan-6-yl)amino-1-(4-(fluoro)phenyl)carbonyl-1H-1,2,4-triazole] the IC50 [4] was > 20 µM.

Molecule `CN(C)c1ccc(NC(=O)n2nc(Nc3ccc(OCCN4CCCCC4)cc3)nc2N)cc1` [compound 44, 5-amino-N-(4-(dimethylamino)phenyl)-3-[4-[2-(piperidin-1-yl)ethoxy]phenylamino]-1H-1,2,4-triazole-1-carboxamide] has an IC50 [6] of 1 to 10 µM.

In the case of `CC(C)Oc1ccc(C(=O)n2nc(Nc3ccc(OCCN4CCSCC4)cc3)nc2N)cc1` [compound 60], the IC50 [4] is reported as < 1 µM.

`CCOc1ccc(C(=O)n2nc(Nc3ccc4c(c3)OCCO4)nc2N)cc1` [compound 114] showed an IC50 [4] of 1 to 10 µM.

For `COc1cccc(NC(=O)n2nc(Nc3ccc(OCCN4CCCCC4)cc3)nc2N)c1` [compound 30, 5-amino-N-(3-methoxyphenyl)-3-[4-[2-(piperidin-1-yl)ethoxy]phenylamino]-1H-1,2,4-triazole-1-carboxamide], the IC50 [6] was < 1 µM.

For `COCOc1cccc(Nc2nc(N)n(C(=O)c3cccc(C)c3)n2)c1` [compound 216, 5-amino-3-(3-methoxymethoxy)phenylamino-1-(3-methylphenyl)carbonyl-1H-1,2,4-triazole], the IC50 [4] was > 20 µM.

For `Cc1cccc(C(=O)n2nc(N)nc2Nc2ccc3c(c2)N(C(=O)OC(C)(C)C)CCO3)c1` [compound 167], the IC50 [3] was > 20 µM.

In the case of `Cc1cccc(C(=O)n2nc(Nc3nc4ccccc4s3)nc2N)c1` [compound 256, 5-amino-3-(benzothiazol-2-yl)amino-1-(3-methylphenyl)carbonyl-1H-1,2,4-triazole], the IC50 [5] is reported as > 20 µM.

For `Cc1ccc(C(=O)n2nc(Nc3ccc4c(c3)OCCO4)nc2N)cc1` [compound 104, 5-amino-3-(1,4-benzodioxan-6-yl)amino-1-(4-(methyl)phenyl)carbonyl-1H-1,2,4-triazole], the IC50 [4] was 1 to 10 µM.

For `Cc1ccc(C(=O)n2nc(N)nc2Nc2ccc3c(c2)OCCO3)cc1C` [compound 236, 3-amino-1-(3,4-dimethylphenyl)carbonyl-5-(1,4-benzodioxan-6-yl)amino-1H-1,2,4-triazole], the IC50 (Table 2, Hela cells, Axl antibody cross-linking stimulation, phospho-Akt chemiluminescence) was > 20 µM.

With `COc1cc(Nc2nc(N)n(C(=O)c3ccc(N4CCOCC4)cc3)n2)ccc1OCCN1CCCC1` [compound 343, 5-amino-1-(4-(morpholin-4-yl)phenyl)carbonyl-3-[3-methoxy-4-[2-(pyrrolidin-1-yl)ethoxy]phenylamino]-1H-1,2,4-triazole] the IC50 [1] was < 1 µM.

In the case of `Cc1ccc(C(=O)n2nc(Nc3ccc(OCCN4CCCC4)cc3)nc2N)cc1` [compound #12, 5-Amino-1-(4-methylphenyl)carbonyl-3-[4-[2-(pyrrolidin-1-yl)ethoxy]phenylamino]-1H-1,2,4-triazole], the IC50 [1] is reported as < 1 µM.

`CC(C)Oc1ccc(C(=O)n2nc(Nc3ccc4c(c3)OCCO4)nc2N)cc1` [compound 113, 5-amino-3-(1,4-benzodioxan-6-yl)amino-1-(4-(iso-propoxy)phenyl)carbonyl-1H-1,2,4-triazole] gave an IC50 [4] of 1 to 10 µM.

`Nc1nc(Nc2ccc(OCCN3CCCC3)cc2)nn1C(=O)c1ccccn1` [compound 203, 5-amino-1-(pyridin-2-yl)carbonyl-3-[4-[2-(pyrrolidin-1-yl)ethoxy]phenylamino]-1H-1,2,4-triazole] was tested, and the IC50 [2] was > 20 µM.

In the case of `CN(C)c1ccc(C(=O)n2nc(N)nc2NC2C3C=CC(C3)C2C(N)=O)cc1` (stereo not drawn) [compound 349, 3-amino-1-(4-(dimethylamino)phenyl)carbonyl-5-[(3-(aminocarbonyl)bicyclo[2.2.1]hept-5-en-2-yl)amino]-1H-1,2,4-triazole], the IC50 [3] is reported as > 20 µM.

With `CC(C)(C)Oc1ccc(C(=O)n2nc(Nc3ccc(OCCN4CCCC4)cc3)nc2N)cc1` [compound #1, 5-Amino-3-[4-[2-(pyrrolidin-1-yl)ethoxy]phenylamino]-1-(4-(tert-butoxy)phenyl)carbonyl-1H-1,2,4-triazole] the IC50 [1] was < 1 µM.

`Nc1nc(Nc2ccc(OCCN3CCCC3)cc2)n(C(=O)c2cc3ccccc3s2)n1` [compound 368, 3-amino-1-(benzo[b]thiophen-2-yl)carbonyl-5-[4-[2-(pyrrolidin-1-yl)ethoxy]phenylamino]-1H-1,2,4-triazole] was tested, and the IC50 (Table 4, Hela cells, Axl antibody cross-linking stimulation, phospho-Akt chemiluminescence) was 1 to 10 µM.

In the case of `CC(=O)N(C)c1ccc(Nc2nc(N)n(C(=O)Nc3ccc4c(c3)OCO4)n2)cc1` [compound 175, 3-[4-(acetyl(methyl)amino)phenyl]amino-5-amino-N-(1,3-benzodioxol-5-yl)-1H-1,2,4-triazole-1-carboxamide], the IC50 [6] is reported as 1 to 10 µM.

In the case of `Cc1cccc(C(=O)n2nc(Nc3cccc(O)c3)nc2N)c1` [(Ia-7), 5-amino-3-[3-(hydroxy)phenylamino]-1-(3-(methyl)phenyl)carbonyl-1H-1,2,4-triazole], the IC50 [4] is reported as 1 to 10 µM.
